Test results taken from US11117859B1, “Pleuromutilin hippuric acid ester with antibacterial activity and a method of preparing the same” (SHAANXI UNIVERSITY OF SCIENCE AND TECHNOLOGY, priority 2021, dated 2021).

Experiments:
Type in all cases: cell-based
[1] = tested on: multi-resistant Staphylococcus aureus 575; test: paper diffusion method drug sensitivity test, MRSA-575; conditions: for Zone of Inhibition: MRSA-575, 30 μg/tablet paper disc (6.35 mm), LB plate, 37° C., 24 h; for inhibitory effect (in words): multi-drug resistant Staphylococcus aureus 575, 30 μg/tablet
Method: (§1) The antimicrobial efficacy was determined by a paper diffusion method drug sensitivity test.
(§2) Experimental strains: multi-resistant Staphylococcus aureus 171, multi-resistant Staphylococcus aureus 575, multi-resistant Staphylococcus aureus 596. The experimental strain was identified by Huashan Hospital, Fudan University (Institute of Antibiotic of Fudan University).
(§3) Drug sensitive paper: The drug sensitive paper was a special drug sensitive paper with a diameter of 6.35 mm and a water absorption of 0.02 mL. The control drug was vancomycin (30 μg/tablet); the test drugs were pleuromutilin (30 μg/tablet), hippuric acid (30 μg/tablet) and pleuromutilin hippuric acid ester (30 μg/tablet).
(§4) Reagents: LB agar medium, LA broth medium, 0.5% DMSO solution.
(§5) The experimental strains were inoculated in non-selective medium and placed in air at 37° C. for 24 h. A single colony that grows well and inoculate it into broth medium was incubate at 35° C.±2° C. for 6 hours, and LA broth medium was used to calibrate the concentration of the bacterial solution to 0.5 Mie turbidimetric tube (1.5×10^8 CFU/mL). A bacterial suspension was obtained.
(§6) LB dry powder was weighed, sterilized at 103.4 Kpa, 121.3° C. high-pressure steam for 15 min, and then placed it in a 40° C.-50° C. water bath. A sterile empty plate (inner diameter 9 cm) was placed on the surface of the ultra-clean table water table, and […] was poured to the plate. The thickness of each plate was 3 mm to 4 mm. After the plate was cooled at room temperature, it was stored in the refrigerator at 2° C.-8° C. A sterile cotton swab was used to dip the bacterial solution and ti evenly coat the surface of the LB plate 3 times. After inoculation of the bacterial suspension, the LB plate was dried at room temperature for 3 min to 5 min. Sterile forceps were used to closely attach the antibacterial drug paper to the dish. The dish was put upside down and placed in a 37° C. incubator for 24 h. The results were observed by measuring the diameter. Taking 0.5% DMSO solution as a negative control, the antibacterial activity is expressed by the diameter of the inhibition zone. The inhibition zone ≥17 mm, sensitive; the inhibition zone of 15 mm-16 mm, intermediary; the inhibition zone ≤14 mm, drug resistance.

[2] = tested on: multi-resistant Staphylococcus aureus 596; test: paper diffusion method drug sensitivity test, MRSA-596; conditions: for Zone of Inhibition: MRSA-596, 30 μg/tablet paper disc (6.35 mm), LB plate, 37° C., 24 h; for inhibitory effect (in words): multi-drug resistant Staphylococcus aureus 596, 30 μg/tablet
Method: as §1, §2, §3, §4, §5, §6

[3] = tested on: multi-resistant Staphylococcus aureus 171; test: paper diffusion method drug sensitivity test, MRSA-171; conditions: for Zone of Inhibition: MRSA-171, 30 μg/tablet paper disc (6.35 mm), LB plate, 37° C., 24 h; for inhibitory effect (in words): multi-drug resistant Staphylococcus aureus 171, 30 μg/tablet
Method: as §1, §2, §3, §4, §5, §6

Question: What does the source list for `O=C(O)CNC(=O)c1ccccc1` [Hippuric acid]?
Answer: Zone of Inhibition [1]: 0 mm; inhibitory effect (in words) [1]: no inhibitory effect; Zone of Inhibition [2]: 0 mm; inhibitory effect (in words) [2]: no inhibitory effect; Zone of Inhibition [3]: 0 mm; inhibitory effect (in words) [3]: no inhibitory effect

Question: How did the “Zone of Inhibition” value [1] turn out when `C=C[C@]1(C)C[C@@H](OC(=O)COC(=O)CNC(=O)c2ccccc2)[C@]2(C)CC[C@@H](C)[C@@]3(CCC(=O)[C@@H]23)[C@@H](C)[C@@H]1O` [Pleuromutilin hippuric acid ester, (3aS,4R,5S,6S,8R,9R,9aR,12R)-5-hydroxy-4,6,9,12-tetramethyl-1-oxo-6-vinyldecahydro-3a,9-propanocyclopenta[8]annulen-8-yl 2-(2-benzamidoacetoxy)acetate] was run?
Answer: The value was 15 mm.

Question: And the “inhibitory effect (in words)” value [1]?
Answer: Its value is “strong inhibitory effects”.

Question: What about the “Zone of Inhibition” value [2] of the same compound?
Answer: Its value is 25 mm.

Question: And the “inhibitory effect (in words)” value [2]?
Answer: Its value is “strong inhibitory effects”.

Question: What about the “Zone of Inhibition” value [3] of the same compound?
Answer: The value was 14 mm.

Question: And the “inhibitory effect (in words)” value [3]?
Answer: Its value is “strong inhibitory effects”.

Question: Which results are given for `C=C[C@]1(C)C[C@@H](OC(=O)CO)[C@]2(C)[C@H](C)CC[C@]3(CCC(=O)[C@H]32)[C@@H](C)[C@@H]1O` [Pleuromutilin]?
Answer: Zone of Inhibition [1]: 0 mm; inhibitory effect (in words) [1]: no inhibitory effect; Zone of Inhibition [2]: 0 mm; inhibitory effect (in words) [2]: no inhibitory effect; Zone of Inhibition [3]: 0 mm; inhibitory effect (in words) [3]: no inhibitory effect

Question: With `CN[C@H](CC(C)C)C(=O)N[C@H]1C(=O)N[C@@H](CC(N)=O)C(=O)N[C@H]2C(=O)N[C@H]3C(=O)N[C@H](C(=O)N[C@H](C(=O)O)c4cc(O)cc(O)c4-c4cc3ccc4O)[C@H](O)c3ccc(c(Cl)c3)Oc3cc2cc(c3O[C@@H]2O[C@H](CO)[C@@H](O)[C@H](O)[C@H]2O[C@H]2C[C@](C)(N)[C@H](O)[C@H](C)O2)Oc2ccc(cc2Cl)[C@H]1O` [Vancomycin] as the compound, how does the “Zone of Inhibition” value [1] read?
Answer: The value was 17 mm.

Question: What about the “Zone of Inhibition” value [2] of the same compound?
Answer: The value was 23 mm.

Question: And the “Zone of Inhibition” value [3]?
Answer: Its value is 15 mm.
